Results published in US20220389003A1, “4-SUBSTITUTED INDOLE AND INDAZOLE SULFONAMIDO DERIVATIVES AS PARG INHIBITORS” (IDEAYA BIOSCIENCES, INC., priority 2019, published 2022).

What was measured:
[1] = target: T1, PARG (Homo sapiens, UniProt Q86W56); experiment: Inhibition of PARG enzymatic assay (TR-FRET enzymatic IC50 assay); type: biochemical; set-up: purchased Peak Proteins; conditions: hPARG 250 pM, biotinylated-PARylated PARP substrate 30 nM
Method in brief: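 Compound preincubated 1 h with 250 pM His-tagged hPARG, then 30 nM biotinylated PARylated hPARP1 substrate added for 10 min; buffer 50 mM Tris-HCl pH 7.4, EDTA/EGTA, 1 mM DTT, 23° C. TR-FRET read after 1 h with anti-His ULight antibody and streptavidin-europium; inhibition scaled between DMSO and no-enzyme controls.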

[2] = system: HCC1806-XRCC1 KD (knock down) cells; experiment: Cellular viability assay (Cell Titer-Glo); type: cell-based; conditions: 96 h, HCC1806-shXRCC1 cells, 4 days of incubation, read-out: PARGi cell viability
Method in brief: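 XRCC1-knockdown HCC1806 cells seeded 24 h before dosing; 9-point 1:3 dilution from 30 μM top concentration, duplicates, 4-day incubation. Viability by CellTiter-Glo luminescence, normalized to DMSO wells as % of control; curves fit with 4-parameter inhibition model.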

[3] = target: T1, PARG; experiment: Inhibition of PARG cellular assay (PAR foci in HeLa cells after MMS); type: cell-based; set-up: endogenous in cells; host or cells: HeLa; conditions: compound 1 h then MMS 1 h
Method in brief: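 HeLa cells pretreated with compound for 1 h, then given MMS for a further 1 h, fixed and immunostained for PAR polymer. High-content imaging quantified nuclear PAR foci intensity (PAR Foci IC50) and percent cells with foci signal >1.3 (PAR % positive IC50).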

T1 sequence (Q86W56 whole entry): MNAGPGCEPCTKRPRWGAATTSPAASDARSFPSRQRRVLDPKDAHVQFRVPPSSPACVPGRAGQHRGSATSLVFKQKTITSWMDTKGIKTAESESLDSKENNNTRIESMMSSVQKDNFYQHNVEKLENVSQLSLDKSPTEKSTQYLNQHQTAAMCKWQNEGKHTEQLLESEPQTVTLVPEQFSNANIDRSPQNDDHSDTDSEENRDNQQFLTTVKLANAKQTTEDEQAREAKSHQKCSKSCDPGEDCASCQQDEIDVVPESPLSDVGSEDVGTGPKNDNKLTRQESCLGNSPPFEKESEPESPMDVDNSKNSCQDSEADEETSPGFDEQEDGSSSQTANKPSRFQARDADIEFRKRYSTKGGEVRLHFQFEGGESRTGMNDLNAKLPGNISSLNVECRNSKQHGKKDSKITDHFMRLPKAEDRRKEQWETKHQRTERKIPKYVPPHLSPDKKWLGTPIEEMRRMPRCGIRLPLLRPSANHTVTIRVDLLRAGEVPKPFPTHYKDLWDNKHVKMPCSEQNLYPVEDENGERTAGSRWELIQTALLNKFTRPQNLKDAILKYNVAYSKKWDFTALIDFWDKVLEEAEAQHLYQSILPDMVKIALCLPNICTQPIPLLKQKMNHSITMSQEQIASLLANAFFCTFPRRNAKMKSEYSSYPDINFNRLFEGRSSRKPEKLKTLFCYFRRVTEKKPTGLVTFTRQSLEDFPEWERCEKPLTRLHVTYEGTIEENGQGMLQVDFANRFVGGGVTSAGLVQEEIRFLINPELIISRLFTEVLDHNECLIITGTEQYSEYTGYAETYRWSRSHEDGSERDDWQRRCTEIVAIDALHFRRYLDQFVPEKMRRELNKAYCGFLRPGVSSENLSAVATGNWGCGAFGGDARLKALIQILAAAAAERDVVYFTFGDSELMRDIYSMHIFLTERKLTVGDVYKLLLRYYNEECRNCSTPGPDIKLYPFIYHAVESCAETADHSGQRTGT

Structure (SMILES)	IC50 [1]	IC50 [2]	IC50 [3]
CC(C)C(=O)N1C2CC1CN(c1cc(S(=O)(=O)NC3(C#N)CC3)cc3c1cnn3-c1nnc(C(F)F)s1)C2 [Example 91, 1-[({1-[5-(difluoromethyl)(1,3,4-thiadiazol-2-yl)]-4-[6-(2-methylpropanoyl)-3,6-diazabicyclo[3.1.1]hept-3-yl]-1H-indazol-6-yl}sulfonyl)amino]cyclopropanecarbonitrile]	1000 to 10000 nM	20000 to 30000 nM	1000 to 10000 nM
N#CC1(NS(=O)(=O)c2cc(N3CCN(c4ccccn4)CC3)c3cnn(-c4nnc(C(F)F)s4)c3c2)CC1 [Example 93, 1-[({1-[5-(difluoromethyl)(1,3,4-thiadiazol-2-yl)]-4-(4-(2-pyridyl)piperazinyl)-1H-indazol-6-yl}sulfonyl)amino]cyclopropanecarbonitrile]	1000 to 10000 nM	1000 to 10000 nM	300 to 1000 nM
N#CC1(NS(=O)(=O)c2cc(N3CCN(c4cccnc4)CC3)c3cnn(-c4nnc(C(F)F)s4)c3c2)CC1 [Example 94, 1-[({1-[5-(difluoromethyl)(1,3,4-thiadiazol-2-yl)]-4-(4-(3-pyridyl)piperazinyl)-1H-indazol-6-yl}sulfonyl)amino]cyclopropanecarbonitrile]	300 to 1000 nM	1000 to 10000 nM	300 to 1000 nM
N#CC1(NS(=O)(=O)c2cc(N3CCN(c4cccnn4)CC3)c3cnn(-c4nnc(C(F)F)s4)c3c2)CC1 [Example 95, 1-[({1-[5-(difluoromethyl)(1,3,4-thiadiazol-2-yl)]-4-(4-pyridazin-3-ylpiperazinyl)-1H-indazol-6-yl}sulfonyl)amino]cyclopropanecarbonitrile]	≤ 100 nM	1000 to 10000 nM	100 to 300 nM
N#CC1(NS(=O)(=O)c2cc(N3CCN(C(=O)c4ccccc4)CC3)c3cnn(-c4nnc(C(F)F)s4)c3c2)CC1 [Example 96, 1-[({1-[5-(difluoromethyl)(1,3,4-thiadiazol-2-yl)]-4-[4-(phenylcarbonyl)piperazinyl]-1H-indazol-6-yl}sulfonyl)amino]cyclopropanecarbonitrile]	≤ 100 nM	1000 to 10000 nM	≤ 100 nM
Cc1nnc(-n2ncc3c(N4CCN(C(=O)C(C)C)CC4)cc(S(=O)(=O)NC4(C#N)CC4)cc32)s1 [Example 97, 1-[({1-(5-methyl(1,3,4-thiadiazol-2-yl))-4-[4-(2-methylpropanoyl)piperazinyl]-1H-indazol-6-yl}sulfonyl)amino]cyclopropanecarbonitrile]	≤ 100 nM	1000 to 10000 nM	100 to 300 nM
CC(C)NS(=O)(=O)c1cc(N2CCN(C(=O)C(C)C)CC2)c2cnn(-c3nnc(C(F)F)s3)c2c1 [Example 98, 1-[4-(1-[5-(difluoromethyl)(1,3,4-thiadiazol-2-yl)]-6-{[(methylethyl)amino]sulfonyl}(1H-indazol-4-yl))piperazinyl]-2-methylpropan-1-one]	100 to 300 nM	1000 to 10000 nM	1000 to 10000 nM
CC(C)C(=O)N1CCN(c2cc(S(=O)(=O)NC(C)(C)C)cc3c2cnn3-c2nnc(C(F)F)s2)CC1 [Example 99, 1-[4-(1-[5-(difluoromethyl)(1,3,4-thiadiazol-2-yl)]-6-{[(tert-butyl)amino]sulfonyl}(1H-indazol-4-yl))piperazinyl]-2-methylpropan-1-one]	100 to 300 nM	1000 to 10000 nM	1000 to 10000 nM
N#CC1(NS(=O)(=O)c2cc(N3CCOCC3)c3cnn(-c4nnc(C(F)F)s4)c3c2)CC1 [Example 100, 1-[({1-[5-(difluoromethyl)(1,3,4-thiadiazol-2-yl)]-4-morpholin-4-yl-1H-indazol-6-yl}sulfonyl)amino]cyclopropanecarbonitrile]	100 to 300 nM	1000 to 10000 nM	300 to 1000 nM
C[C@H]1CN(c2cc(S(=O)(=O)NC3(C#N)CC3)cc3c2cnn3-c2nnc(C(F)F)s2)CCO1 [Example 103, (S)—N-(1-cyanocyclopropyl)-1-(5-(difluoromethyl)-1,3,4-thiadiazol-2-yl)-4-(2-methylmorpholino)-1H-indazole-6-sulfonamide]	100 to 300 nM	1000 to 10000 nM	100 to 300 nM
N#CC1(NS(=O)(=O)c2cc(N3CCC(F)CC3)c3cnn(-c4nnc(C(F)F)s4)c3c2)CC1 [Example 104, 1-[({1-[5-(difluoromethyl)(1,3,4-thiadiazol-2-yl)]-4-(4-fluoropiperidyl)-1H-indazol-6-yl}sulfonyl)amino]cyclopropanecarbonitrile]	300 to 1000 nM	1000 to 10000 nM	300 to 1000 nM
C[C@@H]1CN(c2cc(S(=O)(=O)NC3(C#N)CC3)cc3c2cnn3-c2nnc(C(F)F)s2)CCN1C(=O)C1CCN(CC(F)F)CC1 [Example 106, 1-({[4-((3R)-4-{[1-(2,2-difluoroethyl)(4-piperidyl)]carbonyl}-3-methylpiperazinyl)-1-[5-(difluoromethyl)(1,3,4-thiadiazol-2-yl)]-1H-indazol-6-yl]sulfonyl}amino) cyclopropanecarbonitrile]	≤ 100 nM	1000 to 10000 nM	≤ 100 nM
N#CC1(NS(=O)(=O)c2cc(N3CCN(C(=O)C4CCN(CC(F)F)CC4)CC3)c3cnn(-c4nnc(C(F)F)s4)c3c2)CC1 [Example 107, 1-({[4-(4-{[1-(2,2-difluoroethyl)(4-piperidyl)]carbonyl}piperazinyl)-1-[5-(difluoro-methyl)(1,3,4-thiadiazol-2-yl)]-1H-indazol-6-yl]sulfonyl}amino)cyclopropane carbonitrile]	≤ 100 nM	1000 to 10000 nM	100 to 300 nM
C[C@@H]1CN(c2cc(S(=O)(=O)NC3(C#N)CC3)cc3c2cnn3-c2nnc(C(F)F)s2)CCN1C(=O)C1(C)CC1 [Example 108, 1-{[(4-{(3R)-3-methyl-4-[(methylcyclopropyl)carbonyl]piperazinyl}-1-[5-(difluoro-methyl)(1,3,4-thiadiazol-2-yl)]-1H-indazol-6-yl)sulfonyl]amino}cyclopropane carbonitrile]	≤ 100 nM	< 1000 nM	≤ 100 nM
C[C@@H]1CN(c2cc(S(=O)(=O)NC3(C#N)CC3)cc3c2cnn3-c2nnc(C(F)F)s2)CCN1C(=O)C1(C)CCC1 [Example 109, 1-{[(4-{(3R)-3-methyl-4-[(methylcyclobutyl)carbonyl]piperazinyl}-1-[5-(difluoro-methyl)(1,3,4-thiadiazol-2-yl)]-1H-indazol-6-yl)sulfonyl]amino}cyclopropane carbonitrile]	≤ 100 nM	< 1000 nM	≤ 100 nM
CCC(C)C(=O)N1CCN(c2cc(S(=O)(=O)NC3(C#N)CC3)cc3c2cnn3-c2nnc(C(F)F)s2)C[C@H]1C (stereo partly drawn) [Example 110, 1-[({4-[(3R)-3-methyl-4-(2-methylbutanoyl)piperazinyl]-1-[5-(difluoromethyl)-(1,3,4-thiadiazol-2-yl)]-1H-indazol-6-yl}sulfonyl)amino]cyclopropane carbonitrile]	≤ 100 nM	< 1000 nM	100 to 300 nM
CC1(C(=O)N2CCN(c3cc(S(=O)(=O)NC4(C#N)CC4)cc4c3cnn4-c3nnc(C(F)F)s3)CC2)CC1 [Example 111, 1-{[(1-[5-(difluoromethyl)(1,3,4-thiadiazol-2-yl)]-4-{4-[(methylcyclopropyl)carbonyl]piperazinyl}-1H-indazol-6-yl)sulfonyl]amino}cyclopropanecarbonitrile]	≤ 100 nM	< 1000 nM	≤ 100 nM
